Source: US10098350B2, “Fungicidal amides” (E. I. DU PONT DE NEMOURS AND COMPANY, priority 2013, dated 2018)

What was measured:
Format in all cases: in vivo
[1] = tested on: Stagonospora nodorum (also known as Septoria nodorum); experiment: Test B: wheat seedlings sprayed with test suspension, inoculated with Stagonospora nodorum (wheat glume blotch), visual disease rating
Text: (§1) General protocol for preparing test suspensions for Tests A-E: the test compounds were first dissolved in acetone in an amount equal to 3% of the final volume and then suspended at the desired concentration (in ppm) in acetone and purified water (50/50 mix by volume) containing 250 ppm of the surfactant Trem® 014 (polyhydric alcohol esters). The resulting test suspensions were then used in Tests A-E. Samples were applied to plants at either a 10 ppm (**), 40 ppm, 50 ppm (*) or 200 ppm (#) test solution to the point of run-off on the test plants with the equivalent of a rate of 40 g ai/ha, 160 g ai/ha, 200 g ai/ha, or 800 g ai/ha, respectively.
The test suspension was sprayed to the point of run-off on wheat seedlings. The following day the seedlings were inoculated with a spore suspension of Stagonospora nodorum (also known as Septoria nodorum; the causal agent of wheat glume blotch) and incubated in a saturated atmosphere at 20° C. for 48 h, and then moved to a growth chamber at 20° C. for 6 days, after which time visual disease ratings were made.
(§2) Results for Tests A-E are given in Table A. In the Table, a rating of 100 indicates 100% disease control and a rating of 0 indicates no disease control (relative to the controls). A dash (-) indicates no test results.

Septoria tritici = experiment: Test C: wheat seedlings sprayed with test suspension, inoculated with Septoria tritici (wheat leaf blotch), visual disease rating
Text: as §1
(§3) The test suspension was sprayed to the point of run-off on wheat seedlings. The following day the seedlings were inoculated with a spore suspension of Septoria tritici (the causal agent of wheat leaf blotch) and incubated in a saturated atmosphere at 24° C. for 48 h, and then moved to a growth chamber at 20° C. for 21 days, after which time visual disease ratings were made.
as §2

[2] = tested on: Puccinia recondite f. sp. tritici; experiment: Test D: wheat seedlings sprayed with test suspension, inoculated with Puccinia recondite f. sp. tritici (wheat leaf rust), visual disease rating
Text: as §1
as §3, with “Puccinia recondite f. sp. tritici;” for “Septoria tritici”, “rust)” for “blotch)”, “20°” for “24°”, “24” for “48”, “6” for “21”
as §2

[3] = tested on: Erysiphe graminis f. sp. tritici; experiment: Test E: wheat seedlings sprayed with test suspension, inoculated with Erysiphe graminis f. sp. tritici (wheat powdery mildew), visual disease rating
Text: as §1
The test suspension was sprayed to the point of run-off on wheat seedlings. The following day the seedlings were inoculated with a spore dust of Erysiphe graminis f. sp. tritici, (the causal agent of wheat powdery mildew) and incubated in a growth chamber at 20° C. for 7 or 8 days, after which time visual disease ratings were made.
as §2

[4] = Cmpd. No. marked '*' (other test rate; meaning of mark not shown)
[5] = Cmpd. No. unmarked, 100 = 100% disease control, 0 = no control relative to controls
[6] = Cmpd. No. marked '**' (other test rate; meaning of mark not shown)

Row | Compound | Test B rating (% disease control) [1, 5] [%] | Test C rating (% disease control) (Septoria tritici; [5]) [%] | Test D rating (% disease control) [2, 5] [%] | Test E rating (% disease control) [3, 5] [%] | other results
1 | CC(c1cc(-n2ccc(C(F)(F)F)n2)ccc1Cl)N(C(=O)c1c(C(F)F)nn(C)c1F)C1CC1 (stereo not shown) [compound 135] | – | – | – | – | Test B rating (% disease control) [1, 4]: 100%; Test C rating (% disease control) (Septoria tritici; [4]): 99%; Test D rating (% disease control) [2, 4]: 80%; Test E rating (% disease control) [3, 4]: 95%
2 | Cn1nc(C(F)F)c(C(=O)N(Cc2ccc(-n3cccn3)cc2Cl)C2CC2)c1F [compound 46] | 100 | 99 | 94 | 98 | –
3 | Cn1cc(C(=O)N(Cc2ccc(-n3ccc(Br)n3)cc2Cl)C2CC2)c(C(F)F)n1 [compound 49] | 98 | 99 | 9 | 69 | –
4 | CC(c1cc(-n2ccc(C(F)(F)F)n2)ccc1Br)N(C(=O)c1cn(C)nc1C(F)F)C1CC1 (stereo not shown) [compound 128] | 100 | 92 | 0 | 93 | –
5 | Cc1ccc(-n2ccc(C(F)(F)F)n2)cc1C(C)N(C(=O)c1c(C(F)F)nn(C)c1F)C1CC1 (stereo not shown) [compound 52] | 100 | 99 | 93 | 99 | –
6 | CC(c1cc(-n2ccc(C(F)(F)F)n2)ccc1OC(F)(F)F)N(C(=O)c1c(C(F)F)nn(C)c1F)C1CC1 (stereo not shown) [compound 133] | – | – | – | – | Test B rating (% disease control) [1, 4]: 100%; Test C rating (% disease control) (Septoria tritici; [4]): 92%; Test D rating (% disease control) [2, 4]: 68%; Test E rating (% disease control) [3, 4]: 94%
7 | Cn1cc(C(=O)N(Cc2c(Cl)cc(-n3ccc(Br)n3)cc2Cl)C2CC2)c(C(F)F)n1 [compound 40] | 99 | 99 | 99 | 89 | –
8 | Cn1cc(C(=O)N(Cc2ccc(-n3cncn3)cc2Cl)C2CC2)c(C(F)F)n1 [compound 50] | 0 | 28 | 0 | 0 | –
9 | Cn1nc(C(F)F)c(C(=O)N(Cc2ccc(-n3cnc(Br)n3)cc2Cl)C2CC2)c1F [compound 147] | 0 | 93 | 0 | 0 | –
10 | COc1ccc(-n2ccc(C(F)(F)F)n2)cc1C(C)N(C(=O)c1c(C(F)F)nn(C)c1F)C1CC1 (stereo not shown) [compound 142] | – | – | – | – | Test B rating (% disease control) [1, 4]: 100%; Test C rating (% disease control) (Septoria tritici; [4]): 97%; Test D rating (% disease control) [2, 4]: 83%; Test E rating (% disease control) [3, 4]: 98%
11 | CC(c1cc(-n2ccc(C(F)(F)F)n2)ccc1[N+](=O)[O-])N(C(=O)c1c(C(F)F)nn(C)c1F)C1CC1 (stereo not shown) [compound 134] | – | – | – | – | Test B rating (% disease control) [1, 4]: 94%; Test C rating (% disease control) (Septoria tritici; [4]): 43%; Test D rating (% disease control) [2, 4]: 68%; Test E rating (% disease control) [3, 4]: 0%
12 | CC(c1cc(-n2ccc(C(F)(F)F)n2)cc(C(F)(F)F)c1)N(C(=O)c1cn(C)nc1C(F)F)C1CC1 (stereo not shown) [compound 42] | 0 | 39 | 0 | 0 | –
13 | COc1ccc(C(C)N(C(=O)c2cn(C)nc2C(F)F)C2CC2)cc1-n1ccc(C(F)(F)F)n1 (stereo not shown) [compound 44] | 78 | 87 | 0 | 0 | –
14 | C#CCOc1cc(-n2ccc(C(F)(F)F)n2)ccc1CN(C(=O)c1c(C(F)F)nn(C)c1F)C1CC1 [compound 62] | 99 | 99 | 99 | 94 | –
15 | Cn1nc(C(F)F)c(C(=O)N(Cc2c(Cl)cc(-n3ccc(Br)n3)cc2Cl)C2CC2)c1F [compound 132] | 100 | 99 | 100 | 91 | –
16 | Cc1ccc(-n2ccc(C(F)(F)F)n2)cc1CN(C(=O)c1c(C(F)F)nn(C)c1F)C1CC1 [compound 84] | – | – | – | – | Test B rating (% disease control) [1, 4]: 100%; Test C rating (% disease control) (Septoria tritici; [4]): 98%; Test D rating (% disease control) [2, 4]: 89%; Test E rating (% disease control) [3, 4]: 94%

Row | Compound | Test B rating (% disease control) [1, 5] [%] | Test C rating (% disease control) (Septoria tritici; [5]) [%] | Test D rating (% disease control) [2, 5] [%] | Test E rating (% disease control) [3, 5] [%] | other results
17 | Cn1cc(C(=O)N(Cc2ccc(-n3cccn3)cc2Cl)C2CC2)c(C(F)F)n1 [compound 48] | 100 | 98 | 0 | 73 | –
18 | Cc1ccc(-n2ccc(C(F)(F)F)n2)cc1C(C)N(C(=O)c1cn(C)nc1C(F)F)C1CC1 (stereo not shown) [compound 45] | 100 | 96 | 9 | 90 | –
19 | Cc1cc(-n2ccc(C(F)(F)F)n2)ccc1CN(C(=O)c1c(C(F)F)nn(C)c1F)C1CC1 [compound 105] | 100 | 98 | 99 | 98 | –
20 | Cn1nc(C(F)F)c(C(=O)N(Cc2ccc(-n3cnc(C(F)(F)F)n3)cc2Cl)C2CC2)c1F [compound 67] | 0 | 99 | 0 | 0 | –
21 | Cn1nc(C(F)F)c(C(=O)N(Cc2ccc(-n3cnc(Cl)n3)cc2Cl)C2CC2)c1F [compound 146] | 0 | 94 | 0 | 0 | –
22 | Cn1cc(C(=O)N(Cc2ccnc(-n3ccc(C(F)(F)F)n3)c2Cl)C2CC2)c(C(F)F)n1 [compound 100] | – | – | – | – | Test B rating (% disease control) [1, 6]: 0%; Test C rating (% disease control) (Septoria tritici; [6]): 6%; Test D rating (% disease control) [2, 6]: 0%; Test E rating (% disease control) [3, 6]: 0%
23 | CC(c1ccc(-n2ccc(C(F)(F)F)n2)cc1Cl)N(C(=O)c1c(C(F)F)nn(C)c1F)C1CC1 (stereo not shown) [compound 72] | 100 | 100 | 99 | 99 | –
24 | Cn1nc(C(F)F)c(C(=O)N(Cc2ccc(-n3ccc(C(F)(F)F)n3)c(Cl)c2)C2CC2)c1F [compound 99] | – | – | – | – | Test B rating (% disease control) [1, 6]: 59%; Test C rating (% disease control) (Septoria tritici; [6]): 96%; Test D rating (% disease control) [2, 6]: 97%; Test E rating (% disease control) [3, 6]: 89%
25 | Cn1cc(C(=O)N(Cc2c(F)cc(-n3ccc(C(F)(F)F)n3)cc2F)C2CC2)c(C(F)F)n1 [compound 71] | 92 | 99 | 0 | 91 | –
26 | Cn1nc(C(F)F)c(C(=O)N(Cc2cnc(-n3ccc(C(F)(F)F)n3)c(Cl)c2)C2CC2)c1F [compound 43] | 0 | 6 | 0 | 0 | –
27 | Cc1cc(-n2ccc(C(F)(F)F)n2)cnc1CN(C(=O)c1cn(C)nc1C(F)F)C1CC1 [compound 124] | 0 | 94 | 0 | 73 | –
28 | Cn1nc(C(F)F)c(C(=O)N(Cc2ccc(-n3ccc(Br)n3)cc2Cl)C2CC2)c1F [compound 47] | 100 | 99 | 98 | 99 | –
29 | CC(c1cc(-n2ccc(C(F)(F)F)n2)ccc1[N+](=O)[O-])N(C(=O)c1cn(C)nc1C(F)F)C1CC1 (stereo not shown) [compound 129] | 0 | 10 | 0 | 0 | –
30 | CC(c1cc(-n2ccc(C(F)(F)F)n2)ccc1Cl)N(C(=O)c1cn(C)nc1C(F)F)C1CC1 (stereo not shown) [compound 119] | 99 | 92 | 93 | 92 | –
31 | CC(c1cc(-n2ccc(C(F)(F)F)n2)cc(C(F)(F)F)c1)N(C(=O)c1c(C(F)F)nn(C)c1F)C1CC1 (stereo not shown) [compound 56] | 100 | 97 | 86 | 92 | –
